According to patent US11078192B2, “Aromatic acetylene or aromatic ethylene compound, intermediate, preparation method, pharmaceutical composition and use thereof” (GUANGZHOU MAXINOVEL PHARMACEUTICALS CO., LTD., priority 2016, dated 2021):

target: PD-1/PD-L1 (Homo sapiens (Human), UniProt Q9NZQ7); assay: Homogeneous Time-Resolved Fluorescence (HTRF) binding assay; conditions: CisBio kit #64CUS000C-1, read-out: IC50 of compounds binding to PD-1/PD-L1
Protocol: Homogeneous Time-Resolved Fluorescence (HTRF) binding assay was used to determine the binding activity of the compound of the present invention to PD-1/PD-L1.
The purchased kit (CisBio, #64CUS000C-1) contained reagents required for assays such as PD-1, PD-L1, anti-tag1-Eu, Anti-tag2-XL665, Dilute Buffer, and Detection Buffer.
1. The compound was formulated to 10 concentrations with a 3-fold gradient with 100% DMSO.
2. The solution of the compound in DMSO was added to Dilute Buffer, mixed thoroughly, then transferred to a 96-well plate.
3. PD-L1 was diluted with Dilute Buffer, then added to the above 96-well plate.
4. PD-1 was diluted with Dilute Buffer and added to the above 96-well plate, which was then incubated at room temperature for 30 minutes.
5. A portion of anti-tag1-Eu and a portion of anti-tag2-XL665 were added to Detection Buffer, mixed thoroughly and transferred to the above 96-well plate.
6. The mixture in the above 96-well plate was incubated at room temperature for 1 to 24 hours.
7. HTRF values were read with Envision.

PD-1/PD-L1, sequence (Q9NZQ7 19-238): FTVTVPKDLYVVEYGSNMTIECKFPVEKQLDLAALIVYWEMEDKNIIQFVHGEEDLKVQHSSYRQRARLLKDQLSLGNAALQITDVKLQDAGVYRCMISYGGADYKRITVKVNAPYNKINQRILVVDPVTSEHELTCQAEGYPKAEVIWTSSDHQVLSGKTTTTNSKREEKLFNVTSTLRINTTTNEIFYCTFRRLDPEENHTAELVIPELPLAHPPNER

Structure (SMILES)	IC50 [nM]
Cc1cc(/C=C/c2cccc(-c3ccc4c(c3)OCCO4)c2C)cc(OCc2cccc(C#N)c2)c1CN1CCC[C@H]1CO [Compound 1, (S,E)-3-((5-(3-(2,3-Dihydrobenzo[b][1,4]dioxin-6-yl)-2-methylstyryl)-2-((2-(hydroxymethyl)pyrrolidin-1-yl)methyl)-3-methylphenoxy)methyl)benzonitrile]	1530
COc1cc(C#Cc2cccc(-c3ccccc3)c2C)cc(OC)c1CN1CCC[C@H]1CO [Compound 2, (S)-(1-(2,6-Dimethoxy-4-((2-methyl-biphenyl-3-yl)ethynyl)benzyl)pyrrolidin-2-yl)methanol]	1340
COc1cc(/C=C/c2cccc(-c3ccccc3)c2C)cc(OC)c1CN1CCC[C@H]1CO [Compound 3, (S,E)-(1-(2,6-Dimethoxy-4-((2-methylbiphenyl-3-yl)vinyl)benzyl)pyrrolidin-2-yl)methanol]	2700
COc1cc(/C=C/c2cccc(-c3ccccc3)c2C)cc(OC)c1CNCCO [Compound 4, (E)-2-((2,6-Dimethoxy-4-(2-(2-methylbiphenyl-3-yl)vinyl)benzyl)amino)ethan-1-ol]	280
COc1cc(/C=C/c2cccc(-c3ccccc3)c2C)cc(OC)c1CNC(CO)CO [Compound 5, (E)-2-((2,6-Dimethoxy-4-(2-(2-methylbiphenyl-3-yl)vinyl)benzyl)amino)propane-1,3-diol]	60
COc1cc(/C=C/c2cccc(-c3ccccc3)c2C)cc(OC)c1CNCCNC(C)=O [Compound 6, (E)-N-(2-((2,6-Dimethoxy-4-(2-(2-methylbiphenyl-3-yl)vinyl)benzyl)amino)ethyl)acetamide]	150
Cc1c(/C=C/c2ccc(CN3CCC[C@H]3CO)cc2Cl)cccc1-c1ccccc1 [Compound 11, (S,E)-(1-(3-Chloro-4-(2-(2-methylbiphenyl-3-yl)vinyl)benzyl)pyrrolidin-2-yl)methanol]	460
Cc1cc(CN2CCC[C@H]2CO)ccc1/C=C/c1cccc(-c2ccccc2)c1C [Compound 12]	410
Cc1cc(CN[C@H](C)C(=O)O)ccc1/C=C/c1cccc(-c2ccccc2)c1C [Compound 13, (R,E)-2-(3-Methyl-4-(2-(2-methylbiphenyl-3-yl)vinyl)benzylamino)propanoic Acid]	240
COc1cc(/C=C/c2cccc(-c3ccccc3)c2C#N)cc(OC)c1CN1CCC[C@H]1CO [Compound 14, (S,E)-3-(4-((2-Hydroxymethylpyrrolidin-1-yl)methyl)-3,5-dimethoxystyryl)biphenyl-2-carbonitrile]	390
COc1cc(/C=C/c2cccc(-c3ccc4c(c3)OCCO4)c2C)cc(OC)c1CN1CCC[C@H]1CO [Compound 15]	240
Cc1c(/C=C/c2ccc(CN3CCC[C@H]3CO)cn2)cccc1-c1ccccc1 [Compound 16, (S,E)-(1-((6-(2-(2-Methylbiphenyl-3-yl)vinyl)pyridin-3-yl)methyl)pyrrolidin-2-yl)methanol]	590
Cc1c(/C=C/c2ccc(CNCCO)cn2)cccc1-c1ccc2c(c1)OCCO2 [Compound 17, (E)-2-((6-(3-(2,3-Dihydrobenzo[b][1,4]dioxin-6-yl)-2-methylstyryl)pyridin-3-yl)methylamino)ethanol]	310
Cc1c(/C=C/c2ccc(CNCC(O)CC(=O)O)cn2)cccc1-c1ccc2c(c1)OCCO2 (stereo not shown) [Compound 18, (E)-4-((6-(3-(2,3-Dihydrobenzo[b][1,4]dioxin-6-yl)-2-methylstyryl)pyridin-3-yl)methylamino)-3-hydroxybutanoic Acid]	190
Cc1cc(CN2CCCC(O)C2C(=O)O)ccc1/C=C/c1cccc(-c2ccccc2)c1C (stereo not shown) [Compound 19, (E)-3-Hydroxy-1-(3-methyl-4-(2-(2-methylbiphenyl-3-yl)vinyl)benzyl)piperidin-2-carboxylic Acid]	330
COC(=O)C1C(O)CCCN1Cc1ccc(/C=C/c2cccc(-c3ccccc3)c2C)c(Cl)c1 (stereo not shown) [Compound 20, (E)-Methyl 1-(3-chloro-4-(2-(2-methylbiphenyl-3-yl)vinyl)benzyl)-3-hydroxypiperidin-2-carboxylate]	> 10000
Cc1c(/C=C/c2ccc(CN3CCCC(O)C3C(=O)O)cc2F)cccc1-c1ccccc1 (stereo not shown) [Compound 21, (E)-3-Hydroxy-1-(3-fluoro-4-(2-(2-methylbiphenyl-3-yl)vinyl)benzyl)piperid in-2-carboxylic Acid]	780
Cc1cc(CN2CCCC(O)C2CO)ccc1/C=C/c1cccc(-c2ccccc2)c1C (stereo not shown) [Compound 22, (E)-2-Hydroxymethyl-1-(3-methyl-4-(2-(2-methylbiphenyl-3-yl)vinyl)benzyl)piperidin-3-ol]	550
Cc1c(/C=C/c2ccc(CN3CCCC(O)C3CO)cc2Cl)cccc1-c1ccccc1 (stereo not shown) [Compound 23, (E)-2-Hydroxymethyl-1-(3-chloro-4-(2-(2-methylbiphenyl-3-yl)vinyl)benzyl) piperidin-3-ol]	690

Structure (SMILES)	IC50 [nM]
Cc1c(/C=C/c2ccc(CN3CCCC(O)C3C(N)=O)cc2F)cccc1-c1ccccc1 (stereo not shown) [Compound 24, (E)-1-(3-Fluoro-4-(2-(2-methylbiphenyl-3-yl)vinyl)benzyl)-3-hydroxypiperidin-2-carboxamide]	> 10000
COC(=O)C1C(O)CCCN1Cc1c(OC)cc(/C=C/c2cccc(-c3ccccc3)c2C)cc1OC (stereo not shown) [Compound 25, (E)-Methyl 1-(2,6-dimethoxy-4-(2-(2-methylbiphenyl-3-yl)vinyl)benzyl)-3-hydroxypiperidin-2-carboxylate]	5950
Cc1cc(CN2CCC[C@H](O)[C@@H]2C(N)=O)ccc1/C=C/c1cccc(-c2ccccc2)c1C [Compound 26, (2R,3S,E)-3-Hydroxy-1-(3-methyl-4-(2-(2-methylbiphenyl-3-yl)vinyl)benzyl)piperidin-2-carboxamide]	1300
Cc1cc(CN2CCC[C@@H](O)[C@@H]2C(N)=O)ccc1/C=C/c1cccc(-c2ccccc2)c1C [Compound 27, (2R,3R,E)-3-Hydroxy-1-(3-methyl-4-(2-(2-methylbiphenyl-3-yl)vinyl)benzyl)piperidin-2-carboxamide]	920
Cc1cc(CN2CCCC(O)C2C(=O)O)ccc1C#Cc1cccc(-c2ccccc2)c1C (stereo not shown) [Compound 28, 1-(3-Methyl-4-((2-methylbiphenyl-3-yl)ethynyl)benzyl)-3-hydroxypiperidin-2-carboxylic Acid]	2160
Cc1c(C#Cc2ccc(CN3CCCC(O)C3C(=O)O)cc2F)cccc1-c1ccccc1 (stereo not shown) [Compound 29, 1-(3-Fluoro-4-((2-methylbiphenyl-3-yl)ethynyl)benzyl)-3-hydroxypiperidin-2-carboxylic Acid]	2820
COc1cc(/C=C/c2cccc(-c3ccccc3)c2C)cc(OC)c1CN1CCCC(O)C1C(=O)O (stereo not shown) [Compound 30, (E)-1-(2,6-Dimethoxy-4-(2-(2-methylbiphenyl-3-yl)vinyl)benzyl)-3-hydroxy piperidin-2-carboxylic Acid]	460
Cc1cc(CNC(CO)CO)ccc1/C=C/c1cccc(-c2ccccc2)c1C [Compound 31, (E)-2-(3-Methyl-4-(2-(2-methylbiphenyl-3-yl)vinyl)benzylamino)-1,3-propanediol]	240
Cc1c(/C=C/c2ccc(CNC(CO)CO)cc2Cl)cccc1-c1ccccc1 [Compound 32, (E)-2-(3-Chloro-4-(2-(2-methylbiphenyl-3-yl)vinyl)benzylamino)-1,3-propanediol]	250
Cc1c(/C=C/c2cc(CN[C@H](CO)C(=O)O)ccc2Cl)cccc1-c1ccccc1 [Compound 35, (R,E)-2-(4-Chloro-3-(2-(2-methylbiphenyl-3-yl)vinyl)benzylamino)-3-hydroxypropionic Acid]	250
Cc1ccc(CN[C@H](CO)C(=O)O)cc1/C=C/c1cccc(-c2ccccc2)c1C [Compound 36, (R,E)-2-(4-Methyl-3-(2-(2-methylbiphenyl-3-yl)vinyl)benzylamino)-3-hydroxypropionic Acid]	100
COc1cc(/C=C/c2cccc(-c3ccccc3)c2C)cc(OC)c1CNCC(=O)O [Compound 37, (E)-2-(2,6-Dimethoxy-4-(2-(2-methylbiphenyl-3-yl)vinyl)benzylamino)acetic Acid]	100
Cc1cc(CN[C@H](CO)C(=O)O)ccc1/C=C/c1cccc(-c2ccccc2)c1C [Compound 38, (R,E)-2-(3-Methyl-4-(2-(2-methylbiphenyl-3-yl)vinyl)benzylamino)-3-hydroxypropionic Acid]	230
COc1nc(/C=C/c2cccc(-c3ccccc3)c2C)ccc1CNCCNC(C)=O [Compound 39, (E)-N-(2-(((2-methoxy-6-(2-(2-methylbiphenyl)vinyl)pyridin-3-yl)methyl)amino)ethyl)acetamide]	170
COc1nc(/C=C/c2cccc(-c3ccccc3)c2C)ccc1CNC(CO)CO [Compound 40]	90
COc1nc(/C=C/c2cccc(-c3ccccc3)c2C)ccc1CN[C@H](CO)C(=O)O [Compound 41, (R,E)-3-Hydroxy-2-((2-methoxy-6-(2-(2-methylbiphenyl-3-yl)vinyl)pyridin-3-yl)methylamino)propanoic Acid]	5090
COc1nc(/C=C/c2cccc(-c3ccccc3)c2C)ccc1CNC1CCCCC1NC(C)=O (stereo not shown) [Compound 42]	1100
COc1cc(/C=C/c2cccc(-c3ccccc3)c2C)cc(OC)c1CNC(CCO)C(=O)O (stereo not shown) [Compound 43, (E)-2-(2,6-Dimethoxy-4-(2-(2-methylbiphenyl-3-yl)vinyl)benzylamino)-4-hydroxybutanoic Acid]	130
